Where two headings read alike, the source gives them in different places.
Assays:
[1] = Emulsion stability versus relative HLB of Pluronic L61/F68 mixtures; assay type: physicochemical; settings: from stability of emulsions
From the text: The relative hydrophilic-lipophilic balance (HLB) is a method of optimizing a nonionic surfactant solution to achieve greatest stability. It is described in detail in Emulsions: Theory and Practice, Paul Becher, 1965, Robert E. Krieger Publishing Company Malabar, Fla., and references contained therein, and is incorporated here by reference. Solutions of Pluronic L61 (HLB 3.0) and F68 (HLB 29) were mixed to achieve intermediate HLB values by the following formula:
HLB=fL61 {HLB of L61}+ff68 {HLB of F68} The actual solutions, the calculated HLB values, and the stability of the final formulation (a 2% v/v emulsion of dodecafluorohexane) are contained in the following table: […]

[2] = cited from earlier work
[3] = Acoustic backscatter: gray scale intensity (videodensity) in water beaker at 37° C., Hewlett Packard 77020 scanner, 5.0 MHz
Protocol: Two solutions were prepared to simulate the administration to an organism of either a colloidal dispersion of a low boiling liquid or the liquid, neat.
The emulsions contained Fluorad 170 C as surfactant and were formed by applying acoustic energy from a waterbath sonicator.

[4] = Interfacial tension against dodecafluoropentane at 4° C., Kruss Drop Volume Tensiometer DVT-10; assay type: physicochemical; settings: from graph of IFT versus HLB
Protocol: Mixtures of Pluronic P-123 and Pluronic F-127 were formed, yielding a 1% solution, v/v, with graded HLB numbers and the interfacial tension (IFT) of the solutions against dodecafluoropentane determined at 4° C., using a Kruss Drop Volume Tensiometer DVT-10, Kruss USA, Charlotte, N.C. The results are contained in the following table:
Interfacial tensions of various amphiphilic materials in aqueous solutions (all expressed as v/v solutions) against dodecafluoropentane were measured at 4° C. and emulsions created from each formulation, as described in Example 13.

[5] = Backscatter persistence and intensity of 2% mixtures in saline, 1000 mL water at 37° C., Hewlett-Packard 77020A; settings: for Ratio of Intensity: backscatter intensity qualitatively ranked from 0 to 5
Protocol: The following emulsions were formulated and tested according to methods described in Example 18.
All solutions were made as a 2% solution in saline. A volume of 0.1 cc of each chemical was comminuted with 5 cc saline through a 3-way stopcock for 25 passes. A volume of 1.0 mL of the mixture was immediately injected through a 1.2 μm filter into a stirring water bath containing 1000 mL water at 37° C. The resulting backscatter was then recorded with the use of a Hewlett-Packard 77020A Ultrasound System at […].

[6] = at 25° C.; cited from earlier work
[7] = In vitro ultrasound backscatter / echogenicity of formulations (qualitative); settings: in words
[8] = system: dogs; settings: Ziskin et al. 1972, cited from earlier work
[9] = Expected change in dispersion size from liquid and gas densities; settings: calculated from cubic root of volume
Protocol: One can also calculate the expected change in dispersion size if one knows the relative densities of the dispersed liquid as a gas and liquid. For example, the Gas Data Book, by W Braker and A Mossman, Matheson, contains such data. Examining octafluorocyclobutane, one finds that 1 L of the liquid yields 188 L of gas at a pressure of 760 mm Hg and 15° C. Since the volume of a sphere is related to the diameter of a sphere by the cubic root of the volume, the phase transition for an octafluorobutane emulsion particle will cause a 5.7-fold increase in diameter.

[10] = 760 mm Hg and 15° C.; Gas Data Book; cited from earlier work
[11] = dispersed phase of emulsions of Example 18
[12] = Chemical List of low boiling liquids, Example 45

For FC(F)(F)C(F)(F)C(F)(F)C(F)(F)C(F)(F)C(F)(F)F [Perfluorohexane, reference compound], the “relative HLB established” value [1] is given as 6-8 and the “Boiling Point” value [2, 11] is given as 59 °C.
FC(F)(F)C(F)(F)C(F)(F)C(F)(F)C(F)(F)F [dodecafluoropentane] showed a grayscale intensity ([3]; emulsion with Fluorad 170 C, 0.2 mL in 1000 mL water at 37° C., six seconds, backgrounds 2.9, 3.0, 3.6) of 58.5 units, a grayscale intensity ([3]; fifty-two seconds post-injection into 1000 mL water at 37° C., gray scale of 2 to 254) of 5.0 and a grayscale intensity ([3]; five seconds post-injection into 1000 mL water at 37° C., gray scale of 2 to 254, 0.1 mL emulsion (before 4.27) or 0.2 mL neat liquid (before 4.9)) of 7.7. The “HLB for the dispersed phase liquid” value [4] was “about 14”, the “time over which backscatter diminished” value ([5]; 1.0 mL in 1000 mL water at 37° C.) was 4 to 5 min and the “Ratio of Persistence” value ([5]; 2% in saline, 1.0 mL in 1000 mL water at 37° C., saline+air set as 1) was 24. The “Ratio of Intensity” value [5] was 5, the “Ratio of Intensity” value ([5]; listed as Dodecafluoropentane) was 5.0 and the “Boiling Point” value [2, 12] was 30.5 degrees Celcius. For the same compound, the B.P. ([2]; chemicals of Example 52) was 29 °C, the Boiling Point [2] was 28-29 °C and the “Boiling Point” value [2, 11] was 29 °C. For the same compound, the “Vapor Pressure” value [6] was 646 mmHg at 25 °C.
For CCOCC [ether, diethyl ether], the “in vitro ultrasound backscatter characteristics” value [7] is given as “useful contrast signal”, the lethality ([8]; injections of 20 mL) is given as “proved fatal” and the “contrast effect (Doppler signal)” value ([8]; intraarterial) is given as “greatest contrast effect of any agent that we tried”. The “Boiling Point” value [2, 12] was 34.5 degrees Celcius.
For FC1(F)C(F)(F)C(F)(F)C1(F)F [octafluorocyclobutane], the “increase in diameter of emulsion particle on phase transition” value [9] is given as 5.7 fold and the “volume of gas from 1 L of the liquid” value [10] is given as 188 L.

— patent US6569404B1, “Phase shift colloids as ultrasound contrast agents” (priority 1993, dated 2003)
